{
  "source": "paper PMC10291704",
  "about": "(Biology of blood and marrow transplantation : journal of …, 2019)",
  "key": {"[1]": {"assay_type": "in vivo, human"}, "[2]": {"system": "human cell-line model of busulfan-resistant acute myelogenous leukemia", "conditions": "cited from earlier work; for inhibitory concentration: busulfan-resistant AML cell line"}, "[3]": {"conditions": "cited from earlier work"}, "[4]": {"conditions": "16 patients, 40 mg/m^2/day; cited from earlier work"}, "[5]": {"conditions": "between WBC of 0.3 × 10^3 /μL and 259 × 10^3 /μL; cited from earlier work"}},
  "note": "Where “and” joins values, the source holds several entries; their conditions need not be identical. Equal values may be shown once. Read-outs that look alike come from different tables or passages of the source.",
  "data": [
    {"smiles": "Nc1nc(Cl)nc2c1ncn2[C@@H]1O[C@H](CO)[C@@H](O)[C@@H]1F", "note": "[clo-fara, clofarabine]", "values": [
      {"measurement": "Additive error", "setting": "[1]; bootstrap mean value", "result": 0.36, "unit": "ng/mL"},
      {"measurement": "Proportional residual unexplained variability", "setting": "[1]; bootstrap mean value", "result": 32.7, "unit": "%"},
      {"measurement": "Volume of the peripheral compartment (Vp)", "setting": "[1]; bootstrap mean value", "result": 47.3, "unit": "L/15kg"},
      {"measurement": "between-subject variability for volume of central compartment", "setting": "[1]; final model", "result": 40, "unit": "%"},
      {"measurement": "Additive error", "setting": "[1]; final model parameter estimate", "result": 0.36, "unit": "ng/mL"},
      {"measurement": "Proportional residual unexplained variability", "setting": "[1]; final model parameter estimate", "result": "33% and 33.2%"},
      {"measurement": "Volume of the peripheral compartment (Vp)", "setting": "[1]; final model parameter estimate", "result": "47 L/15kg and 47.4 L/15kg"},
      {"measurement": "AUC", "setting": "[1]; human, in vivo", "result": 3300, "unit": "ng·h/mL"},
      {"measurement": "Inter-compartmental CL", "setting": "[1]; human, in vivo", "result": 164, "unit": "mL/min/kg"},
      {"measurement": "Maturation half-time (Thalf) of age effect on CL", "setting": "[1]; human, in vivo", "result": 0.41, "unit": "years"},
      {"measurement": "Typical value for clo-fara CL", "setting": "[1]; human, in vivo", "result": 23.4, "unit": "L/h/15kg"},
      {"measurement": "between-subject variability for clo-fara CL", "setting": "[1]; human, in vivo", "result": 26, "unit": "%"},
      {"measurement": "clearance", "setting": "[1]; human, in vivo", "result": 390, "unit": "mL/min"},
      {"measurement": "intercompartmental CL", "setting": "[1]; human, in vivo", "result": 9.8, "unit": "L/h/15kg"},
      {"measurement": "AUC at 4 daily doses", "setting": "[1]; human, in vivo, 10 mg/m2", "result": 1200, "unit": "ng·h/mL"},
      {"measurement": "AUC(0-t)", "setting": "[1]; human, in vivo, 10 mg/m2, AUC0–24, median (range)", "result": 300, "unit": "ng·h/mL"},
      {"measurement": "AUC at 4 daily doses", "setting": "[1]; human, in vivo, 30 mg/m2", "result": 3300, "unit": "ng·h/mL"},
      {"measurement": "AUC(0-t)", "setting": "[1]; human, in vivo, 30 mg/m2, AUC0–24, median (range)", "result": 820, "unit": "ng·h/mL"},
      {"measurement": "AUC0–24, median (range)", "setting": "[1]; human, in vivo, 40 mg/m2", "result": "1.04 (0.87 – 4.0) mg•hr/L"},
      {"measurement": "AUC at 5 daily doses", "setting": "[1]; human, in vivo, 40 mg/m2", "result": 5200, "unit": "ng·h/mL"},
      {"measurement": "AUC(0-t)", "setting": "[1]; human, in vivo, 40 mg/m2, AUC0–24, median (range)", "result": 780, "unit": "ng·h/mL"},
      {"measurement": "AUC(0-t)", "setting": "[1]; human, in vivo, 40 mg/m2, AUC0–24, outlier value of one subject", "result": 4000, "unit": "ng·h/mL"},
      {"measurement": "AUC(0-t)", "setting": "[1]; human, in vivo, 40 mg/m2, AUC0–24 of the other subjects", "result": "≤ 1170", "unit": "ng·h/mL"},
      {"measurement": "inhibitory concentration", "setting": "[2]", "result": 0.06, "unit": "µM"},
      {"measurement": "difference in cytotoxic activity, clofarabine vs fludarabine", "setting": "[2]; from inhibitory concentrations", "result": "~50", "unit": "fold"},
      {"measurement": "dose excreted in the urine unchanged", "setting": "[3]; 24-hour urine collections in pediatric studies", "result": "49–60%"},
      {"measurement": "hepatic and non-hepatic metabolic conversion", "setting": "[3]", "result": 0.2, "unit": "%"},
      {"measurement": "variability observed in clo-fara PK parameters (CL, AUC, volume of distribution)", "setting": "[4]", "result": "2–3 fold"},
      {"measurement": "increase of predicted volume of the central compartment with WBC", "setting": "[5]", "result": 2.38, "unit": "fold"}
    ]},
    {"smiles": "Nc1nc(F)nc2c1ncn2[C@@H]1O[C@H](CO)[C@@H](O)[C@@H]1O", "note": "[fludarabine]", "values": [
      {"measurement": "inhibitory concentration", "setting": "[2]", "result": 3.0, "unit": "µM"}
    ]}
  ]
}
